From patent publication US12492173B2, “Herbicidal substituted N-tetrazolyl aryl carboxamides” (Bayer Aktiengesellschaft, priority 2019, dated 2025)

Experiments:
Format in all cases: in vivo
Abutilon theophrasti [1] = assay: Post-emergence herbicidal action, ABUTH; set-up: key: % herbicidal action vs untreated; 100 = plants died, 0 = like control; details: for Herbicidal action against ABUTH: post-emergence
Experimental: (§1) [table] 2. Post-Emergence Herbicidal Action Against Harmful Plants Seeds of monocotyledonous and dicotyledonous weed and crop plants are laid out in sandy loam soil in wood-fiber pots, covered with soil and cultivated in a greenhouse under good growth conditions. 2 to 3 weeks after sowing, the test plants are treated at the one-leaf stage. The compounds of the invention, formulated in the form of wettable powders (WP) or as emulsion concentrates (EC), are then sprayed onto the green parts of the plants in the form of an aqueous suspension or emulsion at a water application rate equating to 600 to 800 l/ha, with addition of 0.2% wetting agent. After the test plants have been left to stand in the greenhouse under optimal growth conditions for about 3 weeks, the action of the preparations is assessed visually in comparison to untreated controls (herbicidal action in percent (%): 100% activity=the plants have died, 0% activity=like control plants). […] The tables below illustrate, in an exemplary manner, the post-emergence herbicidal action of the compounds according to the invention, the herbicidal activity being stated in percent. In the experiments that follow, herbicidal action of numerous inventive compounds and the known compounds that are structurally closest from D1 (WO 2012/028579 A1) and D2 (WO 2018/202535 A1) were compared under the above-specified conditions by the pre-emergence and post-emergence method. The example numbers given in the tables relate to the compounds disclosed in the respective documents. In addition to the compounds disclosed in D1 and D2, the following compounds V-1 to V-14 that are encompassed by D1 or D2 but are not compounds specified therein were used in the comparative experiments: • V-1: 2-(methylsulfanyl)-3-(methylsulfinyl)-N-(1-methyl-1H-tetrazol-5-yl)-4-(trifluoromethyl)benzamide • V-2: 2-(methylsulfanyl)-3-(methylsulfonyl)-N-(1-methyl-1H-tetrazol-5-yl)-4-(trifluoromethyl)benzamide • V-3: 2,3-bis(ethylsulfanyl)-N-(1-methyl-1H-tetrazol-5-yl)-4-(trifluoromethyl)benzamide • V-4: 2-chloro-3-(ethylsulfanyl)-N-(1-methyl-1H-tetrazol-5-yl)-4-(trifluoromethyl)benzamide • V-5: 2-chloro-4-iodo-3-(methylsulfanyl)-N-(1-methyl-1H-tetrazol-5-yl)benzamide • V-6: 2-chloro-4-iodo-3-(methylsulfinyl)-N-(1-methyl-1H-tetrazol-5-yl)benzamide • V-7: 2-chloro-4-iodo-3-(methylsulfonyl)-N-(1-methyl-1H-tetrazol-5-yl)benzamide • V-8: 2-bromo-3-(methylsulfanyl)-N-(1-methyl-1H-tetrazol-5-yl)-4-(trifluoromethyl)benzamide • V-9: 2-bromo-3-(methylsulfinyl)-N-(1-methyl-1H-tetrazol-5-yl)-4-(trifluoromethyl)benzamide • V-10: 2-bromo-3-(methylsulfonyl)-N-(1-methyl-1H-tetrazol-5-yl)-4-(trifluoromethyl)benzamide • V-11: 2-bromo-3-(ethylsulfanyl)-N-(1-methyl-1H-tetrazol-5-yl)-4-(trifluoromethyl)benzamide • V-12: 2-bromo-3-(ethylsulfinyl)-N-(1-methyl-1H-tetrazol-5-yl)-4-(trifluoromethyl)benzamide • V-13: 2-bromo-3-(ethylsulfonyl)-N-(1-methyl-1-1H-tetrazol-5-yl)-4-(trifluoromethyl)benzamide • V-14: 2-cyclopropyl-3-(ethylsulfanyl)-N-(1-methyl-1H-tetrazol-5-yl)-4-(trifluoromethyl)benzamide Herbicidal Pre-Emergence Action: […]

Echinochloa crus-galli [2] = assay: Post-emergence herbicidal action, ECHCG; set-up: key: % herbicidal action vs untreated; 100 = plants died, 0 = like control
Experimental: as §1

Veronica persica [3] = assay: Post-emergence herbicidal action, VERPE; set-up: key: % herbicidal action vs untreated; 100 = plants died, 0 = like control; details: for Herbicidal action against VERPE: post-emergence
Experimental: as §1

Echinochloa crus-galli [4] = assay: Pre-emergence herbicidal action, ECHCG; details: Echinochloa crus-galli, 504 h, comparative experiment, 20 g of a.i./ha, read-out: Herbicidal action against ECHCG
Text: (§2) 1. Pre-Emergence Herbicidal Action Against Harmful Plants Seeds of monocotyledonous and dicotyledonous weed plants and crop plants are laid out in sandy loam soil in wood-fiber pots and covered with soil. The compounds of the invention, formulated in the form of wettable powders (WP) or as emulsion concentrates (EC), are then applied to the surface of the covering soil in the form of an aqueous suspension or emulsion at a water application rate equating to 600 to 800 l/ha, with addition of 0.2% wetting agent. After the treatment, the pots are placed in a greenhouse and kept under good growth conditions for the trial plants. The damage to the test plants is scored visually after a test period of 3 weeks by comparison with untreated controls (herbicidal activity in percent (%): 100% activity=the plants have died, 0% activity=like control plants). […] The tables below illustrate, in an exemplary manner, the […] herbicidal action of the compounds according to the invention, the herbicidal activity being stated in percent. [table] In the experiments that follow, herbicidal action of numerous inventive compounds and the known compounds that are structurally closest from D1 (WO 2012/028579 A1) and D2 (WO 2018/202535 A1) were compared under the above-specified conditions by the pre-emergence and post-emergence method. The example numbers given in the tables relate to the compounds disclosed in the respective documents. In addition to the compounds disclosed in D1 and D2, the following compounds V-1 to V-14 that are encompassed by D1 or D2 but are not compounds specified therein were used in the comparative experiments: • V-1: 2-(methylsulfanyl)-3-(methylsulfinyl)-N-(1-methyl-1H-tetrazol-5-yl)-4-(trifluoromethyl)benzamide • V-2: 2-(methylsulfanyl)-3-(methylsulfonyl)-N-(1-methyl-1H-tetrazol-5-yl)-4-(trifluoromethyl)benzamide • V-3: 2,3-bis(ethylsulfanyl)-N-(1-methyl-1H-tetrazol-5-yl)-4-(trifluoromethyl)benzamide • V-4: 2-chloro-3-(ethylsulfanyl)-N-(1-methyl-1H-tetrazol-5-yl)-4-(trifluoromethyl)benzamide • V-5: 2-chloro-4-iodo-3-(methylsulfanyl)-N-(1-methyl-1H-tetrazol-5-yl)benzamide • V-6: 2-chloro-4-iodo-3-(methylsulfinyl)-N-(1-methyl-1H-tetrazol-5-yl)benzamide • V-7: 2-chloro-4-iodo-3-(methylsulfonyl)-N-(1-methyl-1H-tetrazol-5-yl)benzamide • V-8: 2-bromo-3-(methylsulfanyl)-N-(1-methyl-1H-tetrazol-5-yl)-4-(trifluoromethyl)benzamide • V-9: 2-bromo-3-(methylsulfinyl)-N-(1-methyl-1H-tetrazol-5-yl)-4-(trifluoromethyl)benzamide • V-10: 2-bromo-3-(methylsulfonyl)-N-(1-methyl-1H-tetrazol-5-yl)-4-(trifluoromethyl)benzamide • V-11: 2-bromo-3-(ethylsulfanyl)-N-(1-methyl-1H-tetrazol-5-yl)-4-(trifluoromethyl)benzamide • V-12: 2-bromo-3-(ethylsulfinyl)-N-(1-methyl-1H-tetrazol-5-yl)-4-(trifluoromethyl)benzamide • V-13: 2-bromo-3-(ethylsulfonyl)-N-(1-methyl-1-1H-tetrazol-5-yl)-4-(trifluoromethyl)benzamide • V-14: 2-cyclopropyl-3-(ethylsulfanyl)-N-(1-methyl-1H-tetrazol-5-yl)-4-(trifluoromethyl)benzamide Herbicidal Pre-Emergence Action: […]

Stellaria media [5] = assay: Pre-emergence herbicidal action, STEME; set-up: key to Herbicidal action against STEME: % activity: 100 = plants have died, 0 = like control plants
Text: as §2

Stellaria media [6] = assay: Post-emergence herbicidal action, STEME; set-up: key: % herbicidal action vs untreated; 100 = plants died, 0 = like control; details: for Herbicidal action against STEME: post-emergence
Experimental: as §1

Amaranthus retroflexus [7] = assay: Post-emergence herbicidal action, AMARE; set-up: key: % herbicidal action vs untreated; 100 = plants died, 0 = like control; details: for Herbicidal action against AMARE: post-emergence
Experimental: as §1

Viola tricolor [8] = assay: Pre-emergence herbicidal action, VIOTR; set-up: key to Herbicidal action against VIOTR: % activity: 100 = plants have died, 0 = like control plants; details: comparative experiment, 20 g of a.i./ha
Text: as §2

Veronica persica [9] = assay: Pre-emergence herbicidal action, VERPE; set-up: key to Herbicidal action against VERPE: % activity: 100 = plants have died, 0 = like control plants
Text: as §2

Viola tricolor [10] = assay: Post-emergence herbicidal action, VIOTR; set-up: key: % herbicidal action vs untreated; 100 = plants died, 0 = like control; details: for Herbicidal action against VIOTR: post-emergence
Experimental: as §1

Setaria viridis = assay: Post-emergence herbicidal action, SETVI; set-up: key: % herbicidal action vs untreated; 100 = plants died, 0 = like control; details: post-emergence
Experimental: as §1

Matricaria inodora [11] = assay: Pre-emergence herbicidal action, MATIN; set-up: key to Herbicidal action against MATIN: % activity: 100 = plants have died, 0 = like control plants
Text: as §2

Amaranthus retroflexus [12] = assay: Pre-emergence herbicidal action, AMARE; set-up: key to Herbicidal action against AMARE: % activity: 100 = plants have died, 0 = like control plants; details: for herbicidal action AMARE: dosage 320 g/ha
Text: as §2

Pharbitis purpurea = assay: Post-emergence herbicidal action, PHBPU
Experimental: as §1

Matricaria inodora [13] = assay: Post-emergence herbicidal action, MATIN; set-up: key: % herbicidal action vs untreated; 100 = plants died, 0 = like control
Experimental: as §1

Abutilon theophrasti [14] = assay: Pre-emergence herbicidal action, ABUTH; details: dosage 320 g/ha
Text: as §2

Avena fatua = assay: Post-emergence herbicidal action, AVEFA; set-up: key: % herbicidal action vs untreated; 100 = plants died, 0 = like control; details: Dosage 80 g/ha
Experimental: as §1

[15] = comparative experiment, 5 g of a.i./ha
[16] = comparative experiment, 20 g of a.i./ha

Structure (SMILES): CCSc1c(C(=O)Nc2nnnn2C)ccc(C(F)(F)F)c1SCC [Example V-3, 2,3-bis(ethylsulfanyl)-N-(1-methyl-1H-tetrazol-5-yl)-4-(trifluoromethyl)benzamide, reference compound]
- Herbicidal action against ABUTH (Abutilon theophrasti [1]; [15]): 0
- Herbicidal action against ECHCG (Echinochloa crus-galli [2]; comparative experiment, post-emergence, 5 g of a.i./ha): 0
- Herbicidal action against VERPE (Veronica persica [3]; [15]): 0
- pest or weed control at 20 g/ha (Echinochloa crus-galli [4]): 0%
- Herbicidal action against STEME (Stellaria media [5]; [16]): 0
- Herbicidal action against STEME (Stellaria media [6]; [15]): 0
- Herbicidal action against AMARE (Amaranthus retroflexus [7]; [15]): 0
- Herbicidal action against VIOTR (Viola tricolor [8]): 0
- Herbicidal action against VERPE (Veronica persica [9]; [16]): 0
- Herbicidal action against VIOTR (Viola tricolor [10]; [15]): 0
- Herbicidal action against SETVI (Setaria viridis; [15]): 0
- Herbicidal action against MATIN (Matricaria inodora [11]; [16]): 0
- Herbicidal action against AMARE (Amaranthus retroflexus [12]; [16]): 0

Structure (SMILES): Cn1nnnc1NC(=O)c1ccc(C(F)(F)F)c(CS(=O)(=O)CC(F)(F)F)c1Cl [Example 1-313]
- Herbicidal action against ABUTH (Abutilon theophrasti [1]; dosage 80 g/ha): 100
- Herbicidal action against PHBPU (Pharbitis purpurea; post-emergence, dosage 80 g/ha): 90
- Herbicidal action against VERPE (Veronica persica [3]; dosage 80 g/ha): 80
- herbicidal action STEME (Stellaria media [5]; dosage 320 g/ha): 90%
- Herbicidal action against STEME (Stellaria media [6]; dosage 80 g/ha): 100
- Herbicidal action against AMARE (Amaranthus retroflexus [7]; dosage 80 g/ha): 90
- Herbicidal action against VIOTR (Viola tricolor [10]; dosage 80 g/ha): 80
- Herbicidal action against SETVI (Setaria viridis; dosage 80 g/ha): 80
- Herbicidal action against MATIN (Matricaria inodora [13]; post-emergence, dosage 80 g/ha): 90
- herbicidal action ABUTH (Abutilon theophrasti [14]): 100%
- herbicidal action AMARE (Amaranthus retroflexus [12]): 100%

Structure (SMILES): CCn1nnnc1NC(=O)c1ccc(S(C)(=O)=O)c(CSC)c1Cl [Example 2-278]
- herbicidal action ABUTH (Abutilon theophrasti [1]; Dosage 80 g/ha): 90
- herbicidal action PHBPU (Pharbitis purpurea; Dosage 80 g/ha): 80
- herbicidal action ECHCG (Echinochloa crus-galli [2]; Dosage 80 g/ha): 100
- herbicidal action VERPE (Veronica persica [3]; Dosage 80 g/ha): 100
- herbicidal action STEME (Stellaria media [6]; Dosage 80 g/ha): 80
- herbicidal action AMARE (Amaranthus retroflexus [7]; Dosage 80 g/ha): 90
- herbicidal action VERPE (Veronica persica [9]; dosage 320 g/ha): 100%
- herbicidal action VIOTR (Viola tricolor [10]; Dosage 80 g/ha): 100
- herbicidal action MATIN (Matricaria inodora [13]; Dosage 80 g/ha): 90
- herbicidal action MATIN (Matricaria inodora [11]; dosage 320 g/ha): 90%
- herbicidal action AVEFA (Avena fatua): 100
- herbicidal action ABUTH (Abutilon theophrasti [14]): 100%
- herbicidal action AMARE (Amaranthus retroflexus [12]): 90%
